# Laboratory results: ChEMBL document CHEMBL1909046, “DrugMatrix in vitro pharmacology data”
# Target: T1, Alpha-2A adrenergic receptor (Homo sapiens, UniProt P08913); note: in other assays of this panel Not Active means under 50% inhibition at 10 µM
# T1 sequence (P08913 whole entry): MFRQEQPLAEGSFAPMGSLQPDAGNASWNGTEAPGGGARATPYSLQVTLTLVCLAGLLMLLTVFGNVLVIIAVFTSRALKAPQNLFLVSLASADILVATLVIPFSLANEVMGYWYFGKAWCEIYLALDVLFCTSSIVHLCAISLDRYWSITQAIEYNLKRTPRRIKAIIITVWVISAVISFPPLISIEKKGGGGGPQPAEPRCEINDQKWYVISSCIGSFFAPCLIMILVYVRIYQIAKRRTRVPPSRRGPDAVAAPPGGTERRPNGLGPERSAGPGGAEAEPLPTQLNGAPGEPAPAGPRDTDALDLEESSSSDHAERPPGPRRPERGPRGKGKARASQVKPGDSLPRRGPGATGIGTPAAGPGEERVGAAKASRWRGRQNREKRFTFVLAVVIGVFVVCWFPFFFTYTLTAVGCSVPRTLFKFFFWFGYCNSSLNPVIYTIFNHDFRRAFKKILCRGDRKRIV
# Assay type: cell membranes, Sf9, Membrane
# Settings: sf9
Compound,IC50,Ki
CCN1CCN(c2cc3c(cc2F)c(=O)c(C(=O)O)cn3C2CC2)CC1 [ENROFLOXACIN],Not Active,
CC(C)Cc1ccc([C@H](C)C(=O)O)cc1 [DEXIBUPROFEN],Not Active,
CO[C@H]1O[C@@H]2O[C@@]3(C)CC[C@H]4[C@H](C)CC[C@@H]([C@H]1C)[C@@]24OO3,Not Active,
Nc1ccc(C(=O)O)c(O)c1 [AMINOSALICYLIC ACID],Not Active,
Nc1nc(F)nc2c1ncn2[C@@H]1O[C@H](CO)[C@@H](O)[C@@H]1O [FLUDARABINE],Not Active,
CHROMIC CHLORIDE,Not Active,Not Active

# Test system: not listed separately
# Experiment: DRUGMATRIX: Glutamate, NMDA, Phencyclidine radioligand binding (ligand: [3H] TCP)
# Assay type: cell membranes, Rattus norvegicus, Wistar, Cerebral cortex, Membrane
# Settings: Not Active = under 50% inhibition at 10 µM
Compound,IC50,Ki
CCN1CCN(c2cc3c(cc2F)c(=O)c(C(=O)O)cn3C2CC2)CC1 [ENROFLOXACIN],Not Active,Not Active
CC(C)Cc1ccc([C@H](C)C(=O)O)cc1 [DEXIBUPROFEN],Not Active,Not Active
CO[C@H]1O[C@@H]2O[C@@]3(C)CC[C@H]4[C@H](C)CC[C@@H]([C@H]1C)[C@@]24OO3,Not Active,Not Active
Nc1ccc(C(=O)O)c(O)c1 [AMINOSALICYLIC ACID],Not Active,Not Active
Nc1nc(F)nc2c1ncn2[C@@H]1O[C@H](CO)[C@@H](O)[C@@H]1O [FLUDARABINE],Not Active,Not Active
CHROMIC CHLORIDE,Not Active,Not Active

# Test system: not listed separately
# Experiment: DRUGMATRIX: Platelet-Derived Growth Factor (PDGF) radioligand binding (ligand: [125I] PDGF)
# Assay type: cell-based
# Settings: nih3t3; Not Active = under 50% inhibition at 10 µM
Compound,IC50,Ki
CCN1CCN(c2cc3c(cc2F)c(=O)c(C(=O)O)cn3C2CC2)CC1 [ENROFLOXACIN],Not Active,Not Active
CC(C)Cc1ccc([C@H](C)C(=O)O)cc1 [DEXIBUPROFEN],Not Active,Not Active
CO[C@H]1O[C@@H]2O[C@@]3(C)CC[C@H]4[C@H](C)CC[C@@H]([C@H]1C)[C@@]24OO3,Not Active,Not Active
Nc1ccc(C(=O)O)c(O)c1 [AMINOSALICYLIC ACID],Not Active,Not Active
Nc1nc(F)nc2c1ncn2[C@@H]1O[C@H](CO)[C@@H](O)[C@@H]1O [FLUDARABINE],Not Active,Not Active
CHROMIC CHLORIDE,Not Active,Not Active

# Target: Mitogen-activated protein kinase 3 (Homo sapiens, UniProt P27361)
# Sequence (P27361 whole entry): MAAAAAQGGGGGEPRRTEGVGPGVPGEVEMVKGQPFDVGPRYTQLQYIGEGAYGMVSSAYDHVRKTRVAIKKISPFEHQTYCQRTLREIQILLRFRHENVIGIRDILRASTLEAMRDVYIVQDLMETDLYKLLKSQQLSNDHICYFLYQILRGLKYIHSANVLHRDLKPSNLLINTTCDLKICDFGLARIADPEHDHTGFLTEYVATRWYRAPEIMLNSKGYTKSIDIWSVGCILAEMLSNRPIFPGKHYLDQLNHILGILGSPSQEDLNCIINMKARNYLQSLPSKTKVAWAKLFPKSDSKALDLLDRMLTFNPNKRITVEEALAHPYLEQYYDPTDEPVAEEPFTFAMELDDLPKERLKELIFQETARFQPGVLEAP
# Experiment: DRUGMATRIX: Protein Serine/Threonine Kinase, ERK1 enzyme inhibition (substrate: Myelin Basic Protein)
# Parameters: species or system Escherichia coli
# Settings: Not Active = under 50% inhibition at 10 µM
Compound,IC50,Ki
CCN1CCN(c2cc3c(cc2F)c(=O)c(C(=O)O)cn3C2CC2)CC1 [ENROFLOXACIN],Not Active,
CC(C)Cc1ccc([C@H](C)C(=O)O)cc1 [DEXIBUPROFEN],Not Active,
CO[C@H]1O[C@@H]2O[C@@]3(C)CC[C@H]4[C@H](C)CC[C@@H]([C@H]1C)[C@@]24OO3,Not Active,
Nc1ccc(C(=O)O)c(O)c1 [AMINOSALICYLIC ACID],Not Active,
Nc1nc(F)nc2c1ncn2[C@@H]1O[C@H](CO)[C@@H](O)[C@@H]1O [FLUDARABINE],Not Active,
CHROMIC CHLORIDE,Not Active,Not Active

# Target: Acetylcholinesterase (Homo sapiens, UniProt P22303)
# Sequence (P22303 whole entry): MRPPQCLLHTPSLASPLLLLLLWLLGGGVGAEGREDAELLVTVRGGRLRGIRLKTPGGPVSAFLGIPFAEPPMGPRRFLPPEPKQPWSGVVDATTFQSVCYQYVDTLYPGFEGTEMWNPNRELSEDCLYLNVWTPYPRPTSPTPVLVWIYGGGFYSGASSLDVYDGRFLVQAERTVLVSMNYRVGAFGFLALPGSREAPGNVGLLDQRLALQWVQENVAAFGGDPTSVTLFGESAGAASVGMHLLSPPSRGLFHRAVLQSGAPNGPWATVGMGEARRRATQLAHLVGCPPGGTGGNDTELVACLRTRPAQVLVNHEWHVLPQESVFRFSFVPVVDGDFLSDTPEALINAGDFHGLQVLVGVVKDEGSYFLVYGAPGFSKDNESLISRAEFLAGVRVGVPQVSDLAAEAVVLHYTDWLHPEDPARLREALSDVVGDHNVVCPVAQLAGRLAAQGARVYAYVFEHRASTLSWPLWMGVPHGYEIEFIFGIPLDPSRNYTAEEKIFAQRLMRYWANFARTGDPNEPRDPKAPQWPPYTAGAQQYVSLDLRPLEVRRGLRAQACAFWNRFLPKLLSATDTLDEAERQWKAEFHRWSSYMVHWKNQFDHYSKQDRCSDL
# Experiment: DRUGMATRIX: Acetylcholinesterase enzyme inhibition (substrate: acetylthiocholine)
# Assay type: cell-based, HEK293
# Settings: hek293; Not Active = under 50% inhibition at 10 µM
Compound,IC50,Ki
CCN1CCN(c2cc3c(cc2F)c(=O)c(C(=O)O)cn3C2CC2)CC1 [ENROFLOXACIN],Not Active,
CC(C)Cc1ccc([C@H](C)C(=O)O)cc1 [DEXIBUPROFEN],Not Active,
CO[C@H]1O[C@@H]2O[C@@]3(C)CC[C@H]4[C@H](C)CC[C@@H]([C@H]1C)[C@@]24OO3,Not Active,
Nc1ccc(C(=O)O)c(O)c1 [AMINOSALICYLIC ACID],Not Active,
Nc1nc(F)nc2c1ncn2[C@@H]1O[C@H](CO)[C@@H](O)[C@@H]1O [FLUDARABINE],Not Active,
CHROMIC CHLORIDE,Not Active,Not Active

# Target: Adenosine receptor A2a (Homo sapiens, UniProt P29274)
# Sequence (P29274 whole entry): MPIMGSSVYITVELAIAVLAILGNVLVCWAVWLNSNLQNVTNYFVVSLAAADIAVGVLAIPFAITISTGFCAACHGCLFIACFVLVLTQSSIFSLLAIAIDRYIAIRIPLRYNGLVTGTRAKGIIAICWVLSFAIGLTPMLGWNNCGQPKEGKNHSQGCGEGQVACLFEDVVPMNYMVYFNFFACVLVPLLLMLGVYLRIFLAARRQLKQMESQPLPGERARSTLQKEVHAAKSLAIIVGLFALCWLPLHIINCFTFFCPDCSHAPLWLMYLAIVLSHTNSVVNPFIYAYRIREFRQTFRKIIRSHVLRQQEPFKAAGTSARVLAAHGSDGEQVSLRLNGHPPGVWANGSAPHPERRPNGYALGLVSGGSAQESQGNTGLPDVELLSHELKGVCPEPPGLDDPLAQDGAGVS
# Experiment: DRUGMATRIX: Adenosine A2A radioligand binding (ligand: […])
# Assay type: cell membranes, HEK293, Membrane
# Settings: hek293; Not Active = under 50% inhibition at 10 µM
Compound,IC50,Ki
CCN1CCN(c2cc3c(cc2F)c(=O)c(C(=O)O)cn3C2CC2)CC1 [ENROFLOXACIN],Not Active,
CC(C)Cc1ccc([C@H](C)C(=O)O)cc1 [DEXIBUPROFEN],Not Active,
CO[C@H]1O[C@@H]2O[C@@]3(C)CC[C@H]4[C@H](C)CC[C@@H]([C@H]1C)[C@@]24OO3,Not Active,
Nc1ccc(C(=O)O)c(O)c1 [AMINOSALICYLIC ACID],Not Active,
Nc1nc(F)nc2c1ncn2[C@@H]1O[C@H](CO)[C@@H](O)[C@@H]1O [FLUDARABINE],Not Active,
CHROMIC CHLORIDE,Not Active,Not Active

# Target: T2, Cytochrome P450 2A6 (Homo sapiens, UniProt P11509); note: in other assays of this panel Not Active means under 50% inhibition at 10 µM
# T2 sequence (P11509 whole entry): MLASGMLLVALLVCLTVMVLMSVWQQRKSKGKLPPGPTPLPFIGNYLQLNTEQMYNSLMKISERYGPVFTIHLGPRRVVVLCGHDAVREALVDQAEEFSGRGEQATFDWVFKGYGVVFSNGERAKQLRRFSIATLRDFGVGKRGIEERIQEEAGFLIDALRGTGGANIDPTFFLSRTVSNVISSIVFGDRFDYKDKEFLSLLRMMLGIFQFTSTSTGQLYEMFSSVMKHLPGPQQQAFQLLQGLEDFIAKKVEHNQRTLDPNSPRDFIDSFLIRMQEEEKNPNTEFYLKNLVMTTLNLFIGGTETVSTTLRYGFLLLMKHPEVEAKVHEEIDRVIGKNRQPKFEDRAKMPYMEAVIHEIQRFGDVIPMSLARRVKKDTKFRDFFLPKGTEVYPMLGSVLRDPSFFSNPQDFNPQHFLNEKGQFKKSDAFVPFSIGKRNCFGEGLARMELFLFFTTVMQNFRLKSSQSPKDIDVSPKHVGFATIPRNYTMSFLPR
# Settings: bti-tn-5b1-4
Compound,IC50,Ki
CCN1CCN(c2cc3c(cc2F)c(=O)c(C(=O)O)cn3C2CC2)CC1 [ENROFLOXACIN],Not Active,Not Active
CC(C)Cc1ccc([C@H](C)C(=O)O)cc1 [DEXIBUPROFEN],Not Active,Not Active
CO[C@H]1O[C@@H]2O[C@@]3(C)CC[C@H]4[C@H](C)CC[C@@H]([C@H]1C)[C@@]24OO3,Not Active,Not Active
Nc1ccc(C(=O)O)c(O)c1 [AMINOSALICYLIC ACID],Not Active,Not Active
Nc1nc(F)nc2c1ncn2[C@@H]1O[C@H](CO)[C@@H](O)[C@@H]1O [FLUDARABINE],Not Active,Not Active
CHROMIC CHLORIDE,Not Active,Not Active
